One data set concerns Tyrosinase. As to the kind of experiment: Tyrosinase activity by B16 mouse pigment cells. It is filed as cell-based. Particulars: 2 days contact; for Tyrosinase: n = 4. Here is the method: (§1) B16 mouse pigment cells are cultivated and placed in contact with the product according to the invention for 2 days. For this type of cells, tyrosinase is also assayed. Tyrosinase is the first enzyme in the chain of melanogenesis, changing tyrosine to DOPA-quinone.

In data set [1] the test system is HaCaT keratinoctes. As to the kind of experiment: Laminin production by keratinocytes (ELISA). Particulars: 3 days; for Laminin: n = 4. Type of data set: cell-based. Here is the method: (§2) HaCaT keratinoctes are seeded and cultured and, once at sub-confluence, receive the tyrosine derivative according to the invention, or its solvent, at different concentrations for 3 days. At the end of this period, the media are collected for hyaluronic acid and laminin assays using ELISA methods. The cell concentration is estimated using the Hoescht method.
A general note: ELISA stands for enzyme-linked immunosorbent assay.

The next data set concerns fibroblasts. As to the kind of experiment: PGE2 in fibroblasts with or without UVB (ELISA). Particulars: for PGE2 with UVB irradiation / PGE2 without irradiation: n = 3. Type of data set: cell-based. Here is the method:
(§3) Keratinocytes are seeded and cultured and, once at sub-confluence, receive the tyrosine derivative according to the invention, or its solvent, at different concentrations. After 24 hours, the cells are rinsed and then exposed to UVB, and the cells are then re-treated with the media containing the tyrosine derivative according to the invention at different concentrations for 24 hours. Other cases are not exposed. The culture media are assayed for PGE2, IL6 and IL8 using ELISA methods. The number of cells was estimated using the Hoescht method.
The same protocol is applied in parallel to Fibroblasts.

In data set [2] the test system is B16 mouse pigment cells. As to the kind of experiment: Number of cells in the B16 melanin test. It is filed as cell-based. Particulars: tested concentrations 5.5 and 11 ppm. Here is the method:
(§4) NHM are cultivated and placed in contact with the product according to the invention for 10 days. At the end of this contact period, the mats are ground and the melanin is extracted from the cells. The quantity of melanin is assessed by spectrophotometry, using a standard range established previously from a melanin solution and compared to the control. A protein assay using the bicinchoninic acid (BCA) method is performed to estimate the quantity of cells and to standardise the obtained data.
as §1

For data set [3], the system named is B16 mouse pigment cells. As to the kind of experiment: Melanin production by B16 mouse pigment cells. It is filed as cell-based. Particulars: 2 days contact; for Melanin: n = 4. Here is the method:
as §4, §1

The subject of data set [4] is normal human melanocytes (NHM). As to the kind of experiment: Melanin production by NHM without UV induction (spectrophotometry). Type of data set: cell-based. The note with it: for melanin production by NHM, Variation (%) vs control / Melanin: n = 4; for increase in pigmentation of NHM vs. control: 16 ppm; for Melanin Variation (%) vs control / Melanin: 10 days contact; for Melanin: without UV induction. Here is the method: as §4
The tests were carried out on NHM, the protocol being the same to the one above of point a)
The protocol is the same as that of point a) above.

The test system of data set [5] is keratinocytes. As to the kind of experiment: PGE2 in keratinocytes with or without UVB (ELISA). Type of data set: cell-based. The note with it: for PGE2 with UVB irradiation / PGE2 without irradiation: n = 3. Here is the method:
as §3

Data set [6] concerns NHM. As to the kind of experiment: Number of cells (BCA protein assay) in the NHM melanin test. Type of data set: cell-based, human. Particulars: tested concentrations 5.5 and 11 ppm. Here is the method: as §4
Data set [7] concerns keratinocytes. As to the kind of experiment: IL6 in keratinocytes with UVB (ELISA). Type of data set: cell-based. Particulars: for IL6 with UVB irradiation: n = 2. Here is the method: as §3
The subject of data set [8] is keratinocytes. As to the kind of experiment: IL8 in keratinocytes with UVB (ELISA). Type of data set: cell-based. The note with it: for IL8 with UVB irradiation: n = 2. Here is the method:
as §3

Data set [9] concerns Normal human keratinocytes (NHK). As to the kind of experiment: NHK phagocytosis of fluorescent microbeads mimicking melanosomes. It is filed as cell-based. The note with it: for Phagocytosis (μbeas: (Total Area/1000)): 24 h treatment then beads 3 h, n = 4. Here is the method: Normal human keratinocytes (NHK) are seeded and cultured and, once at 50% sub-confluence, receive the tyrosine derivative according to the invention, or its solvent, at different concentrations for 24 h. At the end of this period, the cells receive the fluorescent microbeads mimicking melanosomes for 3 h. Then, the cells are rinsed to remove excess beads, and the mats are visualized under a fluorescence microscope to quantify phagocytosis. The cell concentration is estimated using the Hoescht method.

The subject of data set [10] is HaCaT keratinoctes. As to the kind of experiment: Hyaluronic acid production by keratinocytes (ELISA). Type of data set: cell-based. The note with it: 3 days; for Hyaluronic acid: n = 4. Here is the method: as §2
Data set [11] deals with NHM. As to the kind of experiment: Pigmentation of NHM, microscopic observation by expert. The note with it: 10 days. It is filed as cell-based, human. Here is the method: NHM are cultivated and placed in contact with the product according to the invention for 10 days. At the end of this contact period, cells are observed with a microscope and variation of pigmentation of cells versus control is evaluated by an expert.

The mark [12] stands for this setting: 12.5 μM (5.5 ppm of N-Palmitoyl-O-methyl-L-Tyrosine, 5.25 ppm of N-Palmitoyl-L-Tyrosine).
The mark [13] stands for this setting: 25 μM (11 ppm of N-Palmitoyl-O-methyl-L-Tyrosine, 10.5 ppm of N-Palmitoyl-L-Tyrosine).

Turning to `CCCCCCCCCCCCCCCC(=O)N[C@@H](Cc1ccc(OC)cc1)C(=O)O` [N-Palmitoyl-O-methyl-L-Tyrosine], the figures for the “Tyrosinase Variation (%) vs control” value with Tyrosinase (5.5 ppm) and with Tyrosinase (11 ppm) were “+9.7%; p < 0.01” and “+20.5%; p < 0.01”, respectively. The Tyrosinase was 2.8 +/− 0 U/1000 μg protein with Tyrosinase (5.5 ppm) and 3.1 +/− 0 U/1000 μg protein in the data set on Tyrosinase (11 ppm). Besides, the “Laminin Variation (%) vs control” value in the data set with HaCaT keratinoctes [1] (2.75 ppm) is “+33%; p < 0.01”; in the data set with HaCaT keratinoctes [1] (5.5 ppm), “+69%; p < 0.01”. In addition, the values for the Laminin with HaCaT keratinoctes [1] (2.75 ppm) and in the data set with HaCaT keratinoctes [1] (5.5 ppm) were 88 +/− 3 ng/10^6 cell and 111 +/− 9 ng/10^6 cell, respectively. For the same compound, the “PGE2 without irradiation Variation (%) vs control” value in the data set with fibroblasts (5.5 ppm) is −32%; p < 0.01; in the data set on fibroblasts (11 ppm) it was −41%; p < 0.01; in the data set with keratinocytes [5] (5.5 ppm), −60%; p < 0.01; with keratinocytes [5] (11 ppm) it was −58%; p < 0.01. Moreover, the “PGE2 with UVB irradiation” value with fibroblasts (5.5 ppm) is 7332 +/− 478 ng/10^6 cell; in the data set on fibroblasts (11 ppm), 6117 +/− 735 ng/10^6 cell; in the data set on keratinocytes [5] (5.5 ppm), 101 +/− 7 ng/10^6 cell; in the data set with keratinocytes [5] (11 ppm), 72 +/− 3 ng/10^6 cell. The PGE2 without irradiation in the data set on fibroblasts (5.5 ppm) is 7420 +/− 422 ng/10^6 cell; in the data set on fibroblasts (11 ppm) it was 6470 +/− 311 ng/10^6 cell; in the data set with keratinocytes [5] (5.5 ppm) it was 51 +/− 5 ng/10^6 cell; in the data set on keratinocytes [5] (11 ppm), 54 +/− 5 ng/10^6 cell. Also, the “PGE2 with UVB irradiation Variation (%) vs control” value is given as −19%; nsd* in the data set with fibroblasts (5.5 ppm, non significant data); −33%; p < 0.01 with fibroblasts (11 ppm); −62%; p < 0.01 with keratinocytes [5] (5.5 ppm); −73%; p < 0.01 in the data set on keratinocytes [5] (11 ppm). Besides, the “number of cells / toxicity” value in the data set with B16 mouse pigment cells [2] and in the data set with NHM [6] was “neither toxic nor multiplication activator” each time. In addition, the “Melanin Variation (%) vs control” value in the data set on B16 mouse pigment cells [3] (5.5 ppm) was “+26%; p < 0.01”; with B16 mouse pigment cells [3] (11 ppm) it was “+62%; p < 0.01”; in data set [4] (NHM, 5.5 ppm) it was “+50%; p < 0.01”; in data set [4] (NHM, 11 ppm), “+86%; p < 0.01”. Further, the Melanin with B16 mouse pigment cells [3] (5.5 ppm) is given as 171.1 +/− 2.3 μg/mL/10^6 cell; with B16 mouse pigment cells [3] (11 ppm), 220.7 +/− 8.7 μg/mL/10^6 cell; in [4] (NHM, 5.5 ppm), 404 +/− 42 μg/mL/10^6 cell; in data set [4] (NHM, 11 ppm) it was 501 +/− 41 μg/mL/10^6 cell. The “melanin production by NHM, Variation (%) vs control” value is recorded as “+50%; p < 0.01” in data set [4] (setting [12]) and “+86%; p < 0.01” in data set [4] (setting [13]). The “increase in pigmentation of NHM vs. control” value in data set [4] (NHM) is recorded as 52%. Moreover, the “IL6 with UVB irradiation Variation (%) vs control” value with keratinocytes [7] (5.5 ppm) is on record as −43%; p < 0.01; with keratinocytes [7] (11 ppm) it was −45%; p < 0.01. The results for the “IL6 with UVB irradiation” value in the data set on keratinocytes [7] (5.5 ppm) and in the data set on keratinocytes [7] (11 ppm) were 880 +/− 142 ng/10^6 cell and 853 +/− 115 ng/10^6 cell, respectively. For the same compound, the results for the “IL8 with UVB irradiation Variation (%) vs control” value in the data set with keratinocytes [8] (5.5 ppm) and with keratinocytes [8] (11 ppm) were −42%; p < 0.01 and −90%; p < 0.01, respectively. Also, the “IL8 with UVB irradiation” value in the data set with keratinocytes [8] (5.5 ppm) is 4.3 +/− 0.7 ng/10^6 cell; with keratinocytes [8] (11 ppm), 0.7 +/− 0 ng/10^6 cell. The figures for the “Phagocytosis Variation (%) vs control” value in data set [9] (5.5 ppm) and in data set [9] (11 ppm) were “+71%; p < 0.01” and “+129%; p < 0.01”, respectively. The “Phagocytosis (μbeas: (Total Area/1000))” value in data set [9] (5.5 ppm) was 6599 +/− 1115 Total Area/1000; in data set [9] (11 ppm), 9910 +/− 1161 Total Area/1000. The “Hyaluronic acid Variation (%) vs control” value in the data set on HaCaT keratinoctes [10] (1.375 ppm) is “+35%; p < 0.01”; with HaCaT keratinoctes [10] (2.75 ppm) it was “+31%; p < 0.01”. The Hyaluronic acid is reported as 402 +/− 35 ng/10^6 cell in the data set on HaCaT keratinoctes [10] (1.375 ppm) and 391 +/− 25 ng/10^6 cell with HaCaT keratinoctes [10] (2.75 ppm).
With `CCCCCCCCCCCCCCCC(=O)N[C@@H](Cc1ccc(O)cc1)C(=O)O` [N-Palmitoyl-L-Tyrosine, reference compound], the “melanin production by NHM, Variation (%) vs control” value in data set [4] (setting [12]) is “+7%; dns”; in [4] (setting [13]) it was “+10%; dns”. Besides, the “Variation of pigmentation of cells versus control (expert grade)” value in the data set with NHM [11] (12.5 μM) and with NHM [11] (25 μM) was 0 throughout.
Turning to `CCCCCCCC/C=C\CCCCCCCCN[C@@H](Cc1ccc(O)cc1)C(=O)O` [oleyl tyrosine, reference compound], the “increase in pigmentation of NHM vs. control” value in [4] (NHM) is 9%. Besides, in data set [4] (NHM, approximately 3 times more oleyl tyrosine applied than 16 ppm), the “increase in NHM pigmentation vs. control” value is on record as “+35%”.
